Measured values as given in patent publication US11117901B2, “Substituted pyrazolo[4,3-h]quinazolines as choline kinase inhibitors” (NERVIANO MEDICAL SCIENCES S.R.L., priority 2017, dated 2021).

Legend:
[1] = system: [Phosphocholine] in MDA-MB-468 cell supernatants; test: Phosphocholine determination in cell culture medium (supernatants); type: cell-based; details: Homo sapiens, 24 h treatment, vs untreated control
Method: (§1) For the determination of phosphocholine in cells, extracts were prepared according to ref. Cancer Res., 2005, 65, 9369-9376 with some modifications. MDA-MB-468 breast cancer cell line was plated at 1×10^6 cells in 10 cm petri dish culture in RPMI, 10% FCS culture medium. After 24 h, fresh medium and a compound of general formula (I) were added for further 24 h. At the end of the treatment, the cells were trypsinised, counted and the diameter was determined using a Coulter Counter (Multisizer 3, Beckman). Cells were washed twice with ice-cold physiologic saline solution and 2×10^6 cells resuspended in 0.3 mL ice-cold twice-distilled water. Then, 0.7 mL ice-cold absolut EtOH were added (final ratio EtOH/H2O 70:30, v/v). After 24 h at −20° C. the samples were sonicated and centrifuged at 14,000×g for 30 minutes.
Phosphocholine concentration levels were assessed in the supernatants using an Ultra High Pressure Liquid Chromatography system (UPLC®, Waters) coupled with a triple quadrupoles mass spectrometer (TQD, Waters) operating in single reaction monitoring mode (SRM). Analyses were performed using Acquity HSS T3 column 2.1×50 mm column, 1.8 μm particle size. Mobile phase A was H2O, modified with 0.15% formic acid, and mobile phase B was MeOH (100% A→97% A over 1 min, flow rate 0.5 mL/min). Waters TQD triple quad mass spectrometer was equipped with an electrospray ion source operating in the positive mode. Source parameters were set as follows: desolvation gas flow 1000 L/h, cone gas flow 50 L/h; collision gas flow 0.2 mL/min; source temperature 130° C.; desolvation temperature 450° C. […] The monitored transitions were m/z 184.00 to 85.7 (collision energy 24 eV) for phosphocholine and m/z 103.0 to 57.5 (collision energy 13 eV) for DMG. […]
For the determination of phosphocholine in cell culture medium, cell culture supernatants (500 μL) were denatured by adding 100 μL of trichloroacetic acid (TCA) 1M containing dimethyl glicine (DMG) (100 μM), used as internal standard. […] The supernatants were subsequently analyzed for phosphocholine determination. […]

hChoKβ FL = target: T1, hChoKβ FL (Homo sapiens, UniProt Q9Y259); test: Biochemical kinase inhibition assay (Kinase-Glo luminescent) on hChoKβ FL; details: recombinant hChoKβ FL 30 nM, ATP 5 μM, choline 20 μM, 60 min rt; read-out: ChoKβ IC50
T1 construct: hChoKβ full length (FL), corresponding to aminoacids 2-395; GST (N, cleaved yes); PreScission Protease recognition site (N); made in house; host or cells: Escherichia coli BL21pLysS (DE3)
Procedure, shortened: (§2)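 Kinase-Glo residual-ATP luminescence with in-house E. coli-expressed, tag-cleaved enzymes: Δ49N-hChoKα 2.2 nM with 5 μM choline; hChoKβ FL 30 nM with 20 μM choline. Both used 5 μM ATP, 60 min at room temperature, 1% DMSO, pH 7.5 Hepes buffer. IC50 from 4-parameter fits of ten 3-fold dilutions from 10 μM.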

Δ49N-hChoKα = target: T2, Δ49N-hChoKα (Homo sapiens, UniProt P35790); test: Biochemical kinase inhibition assay (Kinase-Glo luminescent) on Δ49N-hChoKα; details: recombinant Δ49N-hChoKα 2.2 nM, ATP 5 μM, choline 5 μM, 60 min rt; read-out: ChoKα IC50
T2 construct: cDNA fragment 362-1534, corresponding to aminoacids 50 457; GST (N, cleaved yes); PreScission Protease recognition site (N); made in house; host or cells: Escherichia coli BL21pLysS (DE3)
Procedure, shortened: as §2

[2] = system: [Phosphocholine] in MDA-MB-468 cell extracts; test: Phosphocholine determination assay in cell extracts (target inhibition in cells); type: cell-based; details: Homo sapiens, 24 h treatment, vs untreated control
Method: as §1
Phosphocholine concentration levels were assessed in the supernatants using an Ultra High Pressure Liquid Chromatography system (UPLC®, Waters) coupled with a triple quadrupoles mass spectrometer (TQD, Waters) operating in single reaction monitoring mode (SRM). Analyses were performed using Acquity HSS T3 column 2.1×50 mm column, 1.8 μm particle size. Mobile phase A was H2O, modified with 0.15% formic acid, and mobile phase B was MeOH (100% A→97% A over 1 min, flow rate 0.5 mL/min). Waters TQD triple quad mass spectrometer was equipped with an electrospray ion source operating in the positive mode. Source parameters were set as follows: desolvation gas flow 1000 L/h, cone gas flow 50 L/h; collision gas flow 0.2 mL/min; source temperature 130° C.; desolvation temperature 450° C. Dimethyl glicine (DMG) was added to samples as internal standard at 100 μM final concentration. The monitored transitions were m/z 184.00 to 85.7 (collision energy 24 eV) for phosphocholine and m/z 103.0 to 57.5 (collision energy 13 eV) for DMG. The concentration of PCho in the sample was normalized to the total volume of cells (number cells×volume of single cell considered like a sphere).
As an example, the mechanism of action of cpd 39 is reported in Table 2 (Control refers to untreated cells).

T2 sequence (P35790 50-439 isoform P35790-2): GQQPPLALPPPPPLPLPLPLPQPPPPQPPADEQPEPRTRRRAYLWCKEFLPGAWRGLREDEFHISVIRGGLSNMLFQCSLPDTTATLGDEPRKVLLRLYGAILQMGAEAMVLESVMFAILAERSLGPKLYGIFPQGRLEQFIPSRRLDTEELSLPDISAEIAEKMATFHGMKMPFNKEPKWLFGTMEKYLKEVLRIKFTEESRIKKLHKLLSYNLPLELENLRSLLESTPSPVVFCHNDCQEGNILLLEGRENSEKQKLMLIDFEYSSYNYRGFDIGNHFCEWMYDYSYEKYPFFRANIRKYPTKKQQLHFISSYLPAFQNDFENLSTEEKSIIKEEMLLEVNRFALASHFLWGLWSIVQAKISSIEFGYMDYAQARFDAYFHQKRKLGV
T1 sequence (Q9Y259 2-395): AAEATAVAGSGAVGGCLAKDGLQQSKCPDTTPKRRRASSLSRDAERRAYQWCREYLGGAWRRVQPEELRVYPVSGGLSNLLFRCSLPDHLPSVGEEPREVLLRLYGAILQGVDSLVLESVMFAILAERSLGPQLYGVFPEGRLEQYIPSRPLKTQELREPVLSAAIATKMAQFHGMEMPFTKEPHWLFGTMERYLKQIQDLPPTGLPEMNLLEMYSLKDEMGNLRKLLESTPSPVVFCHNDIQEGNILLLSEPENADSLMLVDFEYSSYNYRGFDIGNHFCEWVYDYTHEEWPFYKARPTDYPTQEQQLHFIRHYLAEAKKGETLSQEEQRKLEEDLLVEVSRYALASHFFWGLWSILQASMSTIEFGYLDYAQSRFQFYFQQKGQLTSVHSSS

SMILES	inhibition at 0.08 µM ([1]; 0.08 μM compound) [%]	inhibition at 0.4 µM ([1]; 0.4 μM compound) [%]	inhibition at 2 µM ([1]; 2 μM compound) [%]	IC50 (hChoKβ FL) [nM]	IC50 (Δ49N-hChoKα) [nM]	inhibition at 0.08 µM ([2]; 0.08 μM compound) [%]	inhibition at 0.4 µM ([2]; 0.4 μM compound) [%]	inhibition at 2 µM ([2]; 2 μM compound) [%]
CC1(C)Cc2cnc(N)nc2-c2[nH]nc(C(=O)Nc3nc(CC(=O)N4CCC(N5CCCCC5)CC4)cs3)c21 [compound 39]	42	85	88	84	2	35	87	98
CC1(C)Cc2cnc(N)nc2-c2[nH]nc(C(=O)Nc3nc(CC(=O)N4CCC(N5CCC(F)(F)CC5)CC4)cs3)c21 [compound 229]				840	18			
CC1(C)Cc2cnc(N)nc2-c2[nH]nc(C(=O)Nc3nc(COC4CCN(C5CCC6(CC5)CC6)CC4)cs3)c21 [compound 230]				594	24			
CC1CCN(C2CCN(C(=O)Cc3csc(NC(=O)c4n[nH]c5c4CC(C)(C)c4cnc(N)nc4-5)n3)CC2)CC1 [compound 231]				104	3			
CC1(C)Cc2c(C(=O)Nc3nc(COC4CCN(C5CCCCCC5)CC4)cs3)n[nH]c2-c2nc(N)ncc21 [compound 232]				146	8			
